Each structure is given as a SMILES string. Where a name gives a salt, the structure may show the parent alone.

Consider 25 compounds from patent publication US4579947A, “Substituted phenylalkylpiperazinylpropyl (ureas or thioureas) useful for treatment of immunological, inflammatory and allergic disorder” (Boehringer Ingelheim Pharmaceuticals, Inc., priority 1984, dated 1986).

Assay type in all cases: cell-based
Test [1] deals with rat peritoneal mast cells. Kind of test: Inhibition of rat peritoneal mast cell histamine release. The conditions noted are these: Mast cell, 1 h; Table B; in vitro, sheep anti-rat IgE or ovalbumin, 60 minutes at 37° C.; Int. = interference with test procedure; read-out: Inhibition IC50 (histamine release from rat peritoneal mast cells). Here is the method:
Harvest of Peritoneal Mast Cells: After the rats are sacrificed with ether, 20 ml of Minimum Essential Medium (MEM) containing 20 units/ml heparin is injected into the peritoneum. The abdomen is massaged for one minute and the lavage fluid collected. The peritoneal cells are centrifuged at 1800 rpm for 8 minutes in cold. After two washes with Tris A buffer, the cells are resuspended in Tris ACM buffer at 2-33 10^6 cells/ml. 2. Reaction Mixture: The reaction is carried out in 12×75 mm plastic tubes at a total volume of 1.25 ml. The reaction mixture includes 0.5 ml (10-1000 μg) sheep anti-rat IgE or ovalbumin, 0.2 ml of the test compound in water at concentrations ranging from 10-1000 μM, 0.5 ml phosphatidylserine solution (20-60 μg to each tube), and 0.5 ml of cell suspension. The reaction mixture is incubated in a 37° C. shaking water bath for 60 minutes. Upon completion of the reaction, the tubes are centrifuged and the supernatants collected. The protein is removed from the supernatants by precipitation with 0.2 ml of 8% perchloric acid. 3. Histamine Assay: Histamine release is measured by the automated fluorometric method of Siraganian, supra. The concentration which causes a 50% inhibition (IC50) of histamine release is computed as in Part A.

Test [2] has as its system isolated guinea pig ileum. The experiment in a line: Antagonism of histamine-induced contraction of isolated guinea pig ileum. The conditions noted are these: Cavia porcellus; Table C; histamine final concentration 0.2 μg/ml; read-out: Inhibition IC50 (histamine-induced contraction of isolated guinea pig ileum). Here is the method: The antagonism of the effects of histamine on the contraction of isolated guinea pig ileum by the compounds of formula I can be determined by the procedure of G. Possanza, A. Bauen, and P. Stewart, Int. Arch. Allergy Appl. Immunol., 49, 289 (1975). The degree of inhibition is determined as the difference between the contraction caused by histamine (final concentration 0.2 μg/ml) alone and that seen in the presence of both histamine and the test compound. The inhibitory activity of the test compound is expressed as that concentration of the compound which causes a 50% reduction of the contractile response (IC50).

The test system of test [3] is human leukocytes (basophils). Kind of test: Inhibition of human leukocyte (basophil) histamine release in vitro (rabbit anti-human IgE). The conditions noted are these: Table A, 60 minutes at 37° C., Int. = interference with test procedure; for IC50: Leukocyte, 1 h, read-out: Inhibition IC50 (histamine release from human leukocytes (basophils)). Here is the method:
Separation of Leukocytes: A modification of the method of L. Lichtenstein and A. Osler, J.Exp.Med. 120, 507 (1964) was used. Heparinized human blood (80-100 ml) is mixed with 20 ml of saline (0.2%) containing 0.6 gm of dextrose and 1.2 gm dextran in propylene centrifuge tubes. The mixture is kept at ambient temperature for 60-90 minutes to allow the separation of erythrocytes from the platelet-leukocyte-rich supernate. The supernate is removed and centrifuged for 8 minutes at 110×g in cold. The leukocyte pellet is washed 2× with Tris buffer and finally suspended in 150-180 ml Tris-ACM buffer at 1-2×10^6 cells/ml. 2. Reaction Mixture: The reaction is carried out in 12×75 mm plastic tubes at a total volume of 1.25 ml. The reaction medium includes 0.05 ml rabbit anti-human IgE (the antigen), 0.2 ml of the test compound in water at concentrations ranging from 10-1000 μM, and 1.0 ml of the leukocyte suspension. The reaction mixture is incubated in a 37° C. shaking water bath for 60 minutes. Upon completion of the reaction, the tubes are centrifuged and the supernatants collected. The protein is removed from the supernatants by precipitation with 0.2 ml of 8% perchloric acid. 3. Histamine Assay: Histamine release is measured by the automated fluorometric method of W. Siraganian and W. Hook in Chapter 102 of the Manual of Clinical Immunology, 2nd Edition, Edited by R. Rose and H. Friedman, Published by the American Society for Microbiology, Washington, D.C. 1980. Percent inhibition is calculated as follows: [formula] The concentration which causes a 50 percent inhibition (IC50) of histamine release is interpolated from a plot of percent inhibition versus logarithm of drug concentration.

With `O=C(NCCCN1CCN(Cc2ccc(Cl)cc2)CC1)NC1CCCCC1` [Example 1, 1-{3-[4-(4-Chlorobenzyl)piperazin-1-yl]propyl}-3-cyclohexylurea dihydrochloride], the IC50 – broadly, the concentration that gives 50% inhibition – in test [1] was determined as 108 µM; in test [2], 0.015 µM; in test [3] it was 50 µM.
Regarding `CNC(=O)NCCCN1CCN(Cc2ccc(Cl)cc2)CC1` [Example 2, 1-{3-[4-(4-Chlorobenzyl)piperazin-1-yl]propyl}-3-methylurea dihydrochloride], the IC50 in test [2] was 0.63 µM; in test [3] it was 300 µM.
The corresponding values for `CCCCNC(=O)NCCCN1CCN(Cc2ccc(Cl)cc2)CC1` [Example 3, 1-{3-[4-(4-Chlorobenzyl)piperazin-1-yl]propyl}-3-n-butylurea dihydrochloride hemihydrate] are 0.07 µM and 50 µM.
As for `CCCCCCNC(=O)NCCCN1CCN(Cc2ccc(Cl)cc2)CC1` [Example 4, 1-{3-[4-(4-Chlorobenzyl)piperazin-1-yl]propyl}-3-n-hexylurea dihydrochloride], the results for the IC50 in test [1], in test [2] and in test [3] were 110 µM, 0.05 µM and 8 µM, respectively.
In the same order, the values of `CCCCCCCCNC(=O)NCCCN1CCN(Cc2ccc(Cl)cc2)CC1` [Example 5, 1{3-[4-(4-Chlorobenzyl)piperazin-1-yl]propyl}-3-n-octylurea diihydrochloride] are 210 µM, 0.75 µM and 16 µM.
With `O=C(NCCCN1CCN(Cc2ccc(F)cc2)CC1)NC1CCCCC1` [Example 6, 1-{3-[4-(4-Fluorobenzyl)piperazin-1-yl]propyl}-3-cyclohexylurea dihydrochloride monohydrate], the IC50 in test [2] amounted to 0.11 µM; in test [3], 50 µM.
For the compound `O=C(NCCCN1CCN(Cc2ccccc2)CC1)NC1CCCCC1` [Example 7, 1-{3-(4-Benzylpiperazin-1-yl)propyl]-3-cyclohexylurea dihydrochloride], the IC50 in test [2] worked out at 0.32 µM; in test [3], 240 µM.
Consider `O=C(NCCCN1CCN(Cc2ccccc2)CC1)Nc1ccccc1` [Example 8, 1-[3-(4-Benzylpiperazin-1-yl)propyl]-3-phenylurea], for which the IC50 in test [2] is 0.21 µM; in test [3], 400 µM.
For the compound `O=C(NCCCN1CCN(Cc2ccc(Cl)cc2)CC1)Nc1ccc(Cl)cc1` [Example 10, 1-{3-[4-(4-Chlorobenzyl)piperazin-1-yl]propyl}-3-(4-chlorophenyl)urea hydrochloride], the results for the concentration for half-maximal inhibition (IC50) in test [2] and in test [3] were 0.15 µM and 30 µM, respectively.
For the compound `Cc1ccc(NC(=O)NCCCN2CCN(Cc3ccc(Cl)cc3)CC2)cc1` [Example 11, 1-{3-[4-(4-Chlorobenzyl)piperazin-1-yl]propyl}-3-(4-methylphenyl)urea dihydrochloride monohydrate], the IC50 in test [2] was found to be 0.065 µM; in test [3] it was 37 µM.
Take `COc1ccc(NC(=O)NCCCN2CCN(Cc3ccc(Cl)cc3)CC2)cc1` [Example 12, 1-{3-[4-(4-Chlorobenzyl)piperazin-1-yl]-propyl}-3-(4-methoxyphenyl)urea hydrochloride]: the values for the IC50 in test [2] and in test [3] were 0.015 µM and 80 µM, respectively.
As for `O=C(NCCCN1CCN(Cc2ccc(Cl)cc2)CC1)Nc1ccc(F)cc1` [Example 15, 1-{3-[4-(4-Chlorobenzyl)piperazin-1-yl]propyl}-3-(4-fluorophenyl)urea dihydrochloride monohydrate], the IC50 in test [2] was 0.06 µM; in test [3] it was 20 µM.
Regarding `O=C(NCCCN1CCN(Cc2ccc(Cl)cc2)CC1)Nc1ccc([N+](=O)[O-])cc1` [Example 16, 1-{3-[4-(4-Chlorobenzyl)piperazin-1-yl]propyl}-3-(4-nitrophenyl)urea dihydrochloride], the results for the IC50 in test [2] and in test [3] were 0.018 µM and 30 µM, respectively.
Regarding `O=C(NCCCN1CCCN(Cc2ccc(Cl)cc2)CC1)NC1CCCCC1` [Example 17, 1-{3-[4-(4-Chlorobenzyl)homopiperazin-1-yl]propyl}-3-cyclohexylurea dihydrochloride], the IC50 in test [2] came out at 0.15 µM; in test [3], 13 µM.
In the case of `O=C(NCCCN1CCCN(Cc2ccc(Cl)cc2)CC1)Nc1ccccc1` [Example 18, 1-{3-[4-(4-Chlorobenzyl)homopiperazin-1-yl]propyl}-3-phenylurea dihydrochloride], the IC50 in test [2] was determined as 0.55 µM; in test [3], 15 µM.
In the same order, the values of `S=C(NCCCN1CCN(Cc2ccc(Cl)cc2)CC1)NC1CCCCC1` [Example 19, 1-{3-[4-(4-Chlorobenzyl)piperazin-1-yl]propyl}-3-cyclohexylthiourea] are 0.11 µM and 26 µM.
Turning to `S=C(NCCCN1CCN(Cc2ccc(Cl)cc2)CC1)Nc1ccccc1` [Example 20, 1-{3-[4-(4-Chlorobenzyl)piperazin-1-yl]propyl}-3-phenylthiourea], the values for the IC50 in test [2] and in test [3] were 0.1 µM and 37 µM, respectively.
As for `CCCCCCNC(=S)NCCCN1CCN(Cc2ccc(Cl)cc2)CC1` [Example 21, 1-{3-[4-(4-Chlorobenzyl)piperazin-1-yl]propyl}-3-n-hexylthiourea dihydrochloride hemihydrate], the IC50 in test [2] came to 0.08 µM. Also, the “Inhibition IC50 (histamine release from human leukocytes (basophils))” value in test [3] is “Int”.
For the compound `O=C(NCCCN1CCN(Cc2ccc(Cl)cc2)CC1)NCc1ccccc1` [Example 22, 1-{3-[4-(4-Chlorobenzyl)piperazin-1-yl]propyl}-3-benzylurea dihydrochloride], the IC50 in test [2] is 0.23 µM; in test [3] it was 112 µM.
As for `CCCCCCNC(=O)NCCCN1CCN(CCc2ccc(Cl)cc2)CC1` [Example 23, 1-{3-[4-(4-Chlorophenethyl)piperazin-1-yl]propyl}-3-n-hexylurea dihydrochloride], the half-maximal inhibitory concentration (IC50) in test [2] was 0.02 µM; in test [3], 16 µM.
For the compound `CCCCCCNC(=O)NCCCN1CCN(Cc2ccc(Cl)c(C(F)(F)F)c2)CC1.Cl.Cl` [Example 26, 1-{3-[4-(3-Trifluoromethyl-4-chlorobenzyl)piperazin-1-yl]propyl}-3-n-hexylurea dihydrochloride], the IC50 in test [2] stood at 0.09 µM. The “Inhibition IC50 (histamine release from human leukocytes (basophils))” value in test [3] is listed as “Int”.
`N#Cc1ccc(NC(=O)NCCCN2CCN(CCCc3ccc(Cl)cc3)CC2)cc1` [Example 27, 1-{3-{4-[3-(4-Chlorophenyl)propyl]piperazin-1-yl}propyl}3-(4-cyanophenyl)urea dihydrocyloride monohydrate]: the IC50 stood at 0.11 µM in test [2] and 20 µM in test [3].
Consider `C=CCNC(=O)NCCCN1CCN(Cc2ccc(Cl)cc2)CC1` [Example 28, 1-{3-[4-(4-Chlorobenzyl)piperazin-1-yl]propyl}-3-allylurea dihydrochloride], for which the half-maximal inhibitory concentration (IC50) in test [2] was 0.17 µM; in test [3], 120 µM.
Take `CC(=O)c1ccc(NC(=O)NCCCN2CCN(Cc3ccc(Cl)cc3)CC2)cc1` [Example 29, 1-{3-[4-(4-Chlorobenzyl)piperazin-1-yl]propyl}-3-(4-acetylphenyl)urea dihydrochloride dihydrate]: the values for the IC50 in test [2] and in test [3] were 0.02 µM and 115 µM, respectively.
For the compound `CCOc1ccc(NC(=O)NCCCN2CCN(Cc3ccc(Cl)cc3)CC2)cc1` [Example 30, 1-{3-[4-(4-Chlorobenzyl)piperazin-1-yl]propyl}-3-(4-ethoxyphenyl)urea dihydrochloride], the concentration for half-maximal inhibition (IC50) in test [3] came to 35 µM.
